Among the data in patent US20230086702A1, “SUBSTITUTED 2-AMINO-PYRAZOLYL-[1,2,4]TRIAZOLO[1,5A]PYRIDINE DERIVATIVES AND USE THEREOF” (The Johns Hopkins University, priority 2019, published 2023) are IC50 values, retold here.

One assay concerns the target T1, DLK (Homo sapiens, UniProt Q12852).
T1 construct: 10 nM DLK, catalytic domain, Carna Biosiences; purchased Carna Biosciences ('Carna Biosiences' [sic])
T1 sequence (Q12852 125-366 limits assumed): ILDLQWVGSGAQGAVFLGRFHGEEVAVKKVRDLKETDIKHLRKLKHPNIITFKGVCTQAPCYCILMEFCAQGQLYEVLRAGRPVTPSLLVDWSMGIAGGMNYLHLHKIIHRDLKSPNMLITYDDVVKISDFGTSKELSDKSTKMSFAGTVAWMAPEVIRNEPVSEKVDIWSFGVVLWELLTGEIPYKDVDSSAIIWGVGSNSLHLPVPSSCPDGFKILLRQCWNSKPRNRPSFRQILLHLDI
Briefly: DLK biochemical assay (TR-FRET, MKK7 phosphorylation). To be noted: DLK catalytic domain, MKK7 substrate, 60 μM ATP. The gist of the method:
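Human DLK activity measured as phosphorylation of His-tagged MKK7 at T275/S277, detected by TR-FRET between Eu-anti-phospho-MKK7 donor (excitation 340 nm) and XL665-anti-His acceptor (665 nm). Signal taken as the XL665/Eu ratio. Detection buffer: 25 mM Tris/HCl pH 7.5, 100 mM EDTA, 100 mM NaCl, 200 mM KF, 0.01% Tween 20.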
On the technique in general: Time-resolved FRET reads energy transfer from a long-lived donor to a nearby acceptor.

The target in another assay is T2, LZK (Homo sapiens, UniProt O43283).
T2 construct: 10 nM LZK, catalytic domain, Carna Biosiences in assay buffer; purchased Carna Biosciences ('Carna Biosiences' [sic])
T2 sequence (O43283 168-409 limits assumed): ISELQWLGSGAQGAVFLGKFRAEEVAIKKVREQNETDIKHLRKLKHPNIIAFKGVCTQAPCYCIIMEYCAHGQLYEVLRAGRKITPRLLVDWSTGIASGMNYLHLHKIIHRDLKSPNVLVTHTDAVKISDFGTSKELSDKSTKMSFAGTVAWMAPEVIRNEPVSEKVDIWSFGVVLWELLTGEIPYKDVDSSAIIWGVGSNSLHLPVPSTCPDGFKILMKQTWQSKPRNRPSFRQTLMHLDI
Briefly: LZK biochemical assay (TR-FRET, MKK7 phosphorylation). To be noted: LZK catalytic domain, MKK7 substrate, 15 μM ATP.

Take `CC[C@H](C)NC(=O)c1cc(-c2cnn(C3CCN(CC)CC3)c2)cn2nc(N)nc12` (single isomer, unassigned) [Example I-6]: the IC50 on DLK was 17 nM; on LZK, 6.7 nM.

For `CC[C@H](C)NC(=O)c1cc(-c2cnn(C3CCN(C(C)C)CC3)c2)cn2nc(N)nc12` (single isomer, unassigned) [Example I-7], the IC50 against DLK worked out at 32 nM; at LZK, 3.8 nM.

Turning to `CC[C@H](C)NC(=O)c1cc(-c2cnn(C3CCN(C4COC4)CC3)c2)cn2nc(N)nc12` (single isomer, unassigned) [Example I-8], the IC50 on DLK is 68 nM; on LZK, 9.4 nM.

In the case of `CC[C@H](C)NC(=O)c1cc(-c2cnn(C3CCN(CC4COC4)CC3)c2)cn2nc(N)nc12` (single isomer, unassigned) [Example I-9], the IC50 against DLK was determined as 80 nM; on LZK, 6.9 nM.

As to `CC[C@H](C)NC(=O)c1cc(-c2cnn(C3CCN(Cc4ccccc4)CC3)c2)cn2nc(N)nc12` (single isomer, unassigned) [Example I-10], the IC50 at DLK amounted to 24 nM; at LZK, 9 nM.

For the compound `CC[C@H](C)NC(=O)c1cc(-c2cnn(C3CCN(C(C)=O)CC3)c2)cn2nc(N)nc12` (single isomer, unassigned) [Example I-11], the IC50 is 82 nM on DLK and 14 nM against LZK.

Turning to `CC[C@H](C)NC(=O)c1cc(-c2cnn(C3CCCC3)c2)cc2nc(N)nn12` (single isomer, unassigned) [Example I-12], the IC50 was 120 nM on DLK and 70 nM on LZK.

Regarding `CC[C@H](C)NC(=O)c1cc(-c2cnn(C3CCc4ccccc43)c2)cn2nc(N)nc12` (single isomer, unassigned) [Example I-14], the figures for the IC50 on DLK and against LZK were 12 nM and 4.7 nM, respectively.

In the case of `CC[C@H](C)NC(=O)c1cc(-c2cnn(C3CCc4ccccc43)c2)cn2nc(N)nc12` (single isomer, unassigned) [Example I-15], the IC50 is 31 nM against DLK and 7.8 nM on LZK.

For `CC[C@H](C)NC(=O)c1cc(-c2cnn(C3CCOc4ccccc43)c2)cc2nc(N)nn12` (single isomer, unassigned) [Example I-17], the concentration for half-maximal inhibition (IC50) on DLK turned out to be 22 nM; at LZK, 4.7 nM.

Consider `CC[C@H](C)NC(=O)c1cc(-c2cnn(C3CCOc4ccccc43)c2)cc2nc(N)nn12` (single isomer, unassigned) [Example I-18], for which the IC50 against DLK is 47 nM; on LZK, 6 nM.

`CC[C@H](C)NC(=O)c1cc(-c2cnn(Cc3cccc4cn[nH]c34)c2)cn2nc(N)nc12` (single isomer, unassigned) [Example I-23]: the IC50 against DLK stood at 2.7 nM; against LZK it was 56 nM.

As for `CC[C@H](C)NC(=O)c1cc(-c2cnn(C(c3ccccc3)C(C)C)c2)cc2nc(N)nn12` (single isomer, unassigned) [Example I-25], the IC50 is 23 nM on DLK and 140 nM against LZK.

For the compound `CC[C@H](C)NC(=O)c1cc(-c2cnn([C@H](c3ccccc3)C(C)C)c2)cc2nc(N)nn12` (single isomer, unassigned) [Example I-26], the IC50 was 1.1 nM at DLK and 18 nM against LZK.

Consider `CC[C@H](C)NC(=O)c1cc(-c2cnn(C(c3ccccc3)C3(C)CC3)c2)cn2nc(N)nc12` (single isomer, unassigned) [Example I-29], for which the IC50 against DLK was determined as 2.3 nM; against LZK, 170 nM.

Consider `CC[C@H](C)NC(=O)c1cc(-c2cnn(C(c3ccccc3)C3(C)CC3)c2)cn2nc(N)nc12` (single isomer, unassigned) [Example I-30], for which the IC50 was determined as 140 nM against DLK and 310 nM at LZK.

`CC[C@H](C)NC(=O)c1cc(-c2cnn(C(c3ccccc3)C3CC(F)(F)C3)c2)cn2nc(N)nc12` (single isomer, unassigned) [Example I-32]: the values for the IC50 against DLK and on LZK were 56 nM and 180 nM, respectively.

On to `CC[C@H](C)NC(=O)c1cc(-c2cnn(C(c3ccccc3)C3CC(F)(F)C3)c2)cn2nc(N)nc12` (single isomer, unassigned) [Example I-33], for which the IC50 against DLK was determined as 2.2 nM; against LZK, 59 nM.

Regarding `CC[C@H](C)NC(=O)c1cc(-c2cnn(C(c3ccccc3)C(C)(C)C)c2)cn2nc(N)nc12` (single isomer, unassigned) [Example I-35], the IC50 against DLK stood at 410 nM; at LZK, 990 nM.

As to `CC[C@H](C)NC(=O)c1cc(-c2cnn(C(c3ccccc3)C(C)(C)C)c2)cn2nc(N)nc12` (single isomer, unassigned) [Example I-36], the IC50 at DLK turned out to be 25 nM; at LZK, 180 nM.

In the case of `CC[C@H](C)NC(=O)c1cc(-c2cnn(C(CC(F)(F)F)c3ccccc3)c2)cn2nc(N)nc12` (single isomer, unassigned) [Example I-38], the IC50 turned out to be 1.3 nM on DLK and 91 nM on LZK.

For the compound `CC[C@H](C)NC(=O)c1cc(-c2cnn(C(CC(F)(F)F)c3ccccc3)c2)cn2nc(N)nc12` (single isomer, unassigned) [Example I-39], the IC50 on DLK worked out at 24 nM; against LZK, 230 nM.

For the compound `CC[C@H](C)NC(=O)c1cc(-c2cnn(C(COC)c3ccccc3)c2)cn2nc(N)nc12` (single isomer, unassigned) [Example I-41], the IC50 on DLK came to 2.8 nM; at LZK it was 26 nM.

Regarding `CC[C@H](C)NC(=O)c1cc(-c2cnn(C(COC)c3ccccc3)c2)cn2nc(N)nc12` (single isomer, unassigned) [Example I-42], the IC50 worked out at 9.8 nM against DLK and 37 nM against LZK.

As to `CC[C@H](C)NC(=O)c1cc(-c2cnn(C(c3ccc(F)cc3)C(C)C)c2)cn2nc(N)nc12` (single isomer, unassigned) [Example I-44], the IC50 on DLK amounted to 33 nM; against LZK, 160 nM.

For the compound `CC[C@H](C)NC(=O)c1cc(-c2cnn([C@H](c3ccc(F)cc3)C(C)C)c2)cn2nc(N)nc12` (single isomer, unassigned) [Example I-45], the IC50 at DLK came to 1.3 nM; against LZK it was 32 nM.

For the compound `CC[C@H](C)NC(=O)c1cc(-c2cnn(Cc3ccc(C(F)(F)F)cc3)c2)cn2nc(N)nc12` (single isomer, unassigned) [Example I-46], the values for the IC50 against DLK and against LZK were 25 nM and 40 nM, respectively.

As to `CCC(c1ccc(N2CCOCC2)cc1)n1cc(-c2cc(C(=O)N[C@@H](C)CC)c3nc(N)nn3c2)cn1` (single isomer, unassigned) [Example I-48], the IC50 against DLK turned out to be 25 nM; on LZK, 120 nM.

Consider `CCC(c1ccc(N2CCOCC2)cc1)n1cc(-c2cc(C(=O)N[C@@H](C)CC)c3nc(N)nn3c2)cn1` (single isomer, unassigned) [Example I-49], for which the IC50 on DLK is 1.5 nM; on LZK it was 17 nM.

As to `CC[C@H](C)NC(=O)c1cc(-c2cnn(Cc3cccc4cn[nH]c34)c2)cc2nc(N)nn12` (single isomer, unassigned) [Example I-50], the IC50 stood at 1.6 nM on DLK and 25 nM against LZK.

Take `CC[C@H](C)NC(=O)c1cc(-c2cnn(C(c3ccccc3)C3CCOCC3)c2)cc2nc(N)nn12` (single isomer, unassigned) [Example I-52]: the figures for the IC50 against DLK and against LZK were 0.7 nM and 5.6 nM, respectively.

For the compound `CC[C@H](C)NC(=O)c1cc(-c2cnn(C(c3ccccc3)C3CCOCC3)c2)cc2nc(N)nn12` (single isomer, unassigned) [Example I-53], the IC50 against DLK was 11 nM; against LZK, 24 nM.

Consider `CC[C@H](C)NC(=O)c1cc(-c2cnn([C@@H](CC)c3ccc(F)cc3)c2)cc2nc(N)nn12` (single isomer, unassigned) [Example I-54], for which the IC50 came to 1.9 nM against DLK and 8.5 nM against LZK.

As for `CCC(c1ccc(F)cn1)n1cc(-c2cc(C(=O)N[C@@H](C)CC)c3nc(N)nn3c2)cn1` (single isomer, unassigned) [Example I-56], the IC50 at DLK is 2.7 nM; on LZK it was 19 nM.

In the case of `CCC(c1ccc(F)cn1)n1cc(-c2cc(C(=O)N[C@@H](C)CC)c3nc(N)nn3c2)cn1` (single isomer, unassigned) [Example I-57], the figures for the IC50 against DLK and on LZK were 59 nM and 61 nM, respectively.

Take `CCC(c1cncc(Cl)c1)n1cc(-c2cc(C(=O)N[C@@H](C)CC)c3nc(N)nn3c2)cn1` (single isomer, unassigned) [Example I-59]: the IC50 came out at 20 nM against DLK and 58 nM against LZK.

Turning to `CC[C@H](C)NC(=O)c1cc(-c2cnn([C@@H](CC)c3cncc(Cl)c3)c2)cn2nc(N)nc12` (single isomer, unassigned) [Example I-60], the figures for the IC50 against DLK and on LZK were 3.7 nM and 8.9 nM, respectively.

`CC[C@H](C)NC(=O)c1cc(-c2cnn(C(c3cncc(Cl)c3)C(C)C)c2)cn2nc(N)nc12` (single isomer, unassigned) [Example I-62]: the IC50 against DLK was 8.8 nM; against LZK it was 74 nM.

What is called IC50 is the point on the concentration scale where inhibition reaches its midpoint. Read a high IC50 as weaker potency.
